Earlier results on one compound are cited in US9877959B2, “Pharmaceutical composition containing palonosetron” (SAMYANG BIOPHARMACEUTICALS CORPORATION, priority 2013, dated 2018).

A word on the half-life: it is how long it takes for the measured level to halve.

Structures are written as SMILES. Where only a bound is given, the exact number is not on record here.

The target in one data set is T1, 5-HT3 receptor (Homo sapiens, UniProt P46098).
T1 sequence (P46098 24-478): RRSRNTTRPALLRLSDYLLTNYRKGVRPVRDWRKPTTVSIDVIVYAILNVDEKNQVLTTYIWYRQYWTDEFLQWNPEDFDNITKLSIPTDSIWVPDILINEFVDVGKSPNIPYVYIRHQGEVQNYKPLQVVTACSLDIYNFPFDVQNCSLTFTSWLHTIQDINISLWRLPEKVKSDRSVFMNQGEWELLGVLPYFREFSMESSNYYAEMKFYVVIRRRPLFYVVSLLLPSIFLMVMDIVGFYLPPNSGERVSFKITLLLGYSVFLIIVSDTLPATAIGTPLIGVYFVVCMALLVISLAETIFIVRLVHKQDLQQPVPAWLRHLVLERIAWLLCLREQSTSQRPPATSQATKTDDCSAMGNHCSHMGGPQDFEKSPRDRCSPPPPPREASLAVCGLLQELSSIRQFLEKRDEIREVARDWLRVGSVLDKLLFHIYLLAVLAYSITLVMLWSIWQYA
The following applies: relative to first-generation 5-HT3 receptor antagonists.

The conditions of data set [1]: in vivo.

Regarding `O=C1c2cccc3c2C(CCC3)CN1C1CN2CCC1CC2` (stereo in doubt) [palonosetron, (3aS)-2-[(3S)-1-azabicyclo[2.2.2]oct-3-yl]-2,3,3a,4,5,6-hexahydro-1H-benz[de]isoquinolin-1-one], at 5-HT3 receptor, the “inhibitory effect on delayed vomiting, higher than that of other first-generation 5-HT3 receptor antagonists” value is on record as 10 times. Also, the half-life in data set [1] is ≥ 40 h.
